Reference: ChEMBL document CHEMBL1201862, “PubChem BioAssay data set” (2004)
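Where inhibition never reached the appropriate level, the endpoint shown equals the highest concentration tested. Otherwise, values were interpolated linearly from a five-concentration, 48-hour dose response in 96-well plates. GI50 is the concentration that inhibits growth by half.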 The source made the active and inactive calls. No stated cut-off is given here; in the data, active = GI50 up to about 1.1 µM and inactive = higher.

What was measured:
Experiment in all cases: NCI anticancer screen, dose series, 48 h
[1] = test system: SNB-19
[2] = test system: SF-295
[3] = test system: HOP-62
[4] = test system: K562
[5] = test system: UO-31
[6] = test system: IGROV-1
[7] = test system: 786-0
[8] = test system: SF-268
[9] = test system: U-251
[10] = test system: LOX IMVI
[11] = test system: SN12C
[12] = test system: RPMI-8226
[13] = test system: RXF 393
[14] = test system: M19-MEL
[15] = test system: NCI-H226
[16] = test system: SNB-75
[17] = test system: DLD-1
[18] = test system: MDA-N
[19] = test system: MDA-MB-231
[20] = test system: MDA-MB-435

Measured: GI50

Cc1oc2c(C)c(O)c3c(c2c1C1(C)OCCO1)C(=O)C=C(Cl)C3=O
inactive: [1] > 100 µM | [2] > 100 µM | [3] > 100 µM | [4] > 100 µM | [5] > 100 µM | [6] > 100 µM | [7] > 100 µM | [8] > 100 µM | [9] > 100 µM | [10] > 100 µM | [11] > 100 µM | [12] > 100 µM | [13] > 100 µM | [14] > 100 µM | [15] > 100 µM

Cc1cc(N(CCC#N)CCC#N)ccc1/N=N/c1cccc(Cl)c1
inactive: [1] 51.8 µM | [2] > 100 µM | [3] 86.5 µM | [4] 3.42 µM | [5] > 100 µM | [7] > 100 µM | [9] > 100 µM | [11] > 100 µM | [12] > 100 µM | [13] 75 µM | [14] > 100 µM | [15] > 100 µM

CCSc1nc2n(c(=S)n1)CCN2C
inactive: [1] 20.6 µM | [2] 21.9 µM | [3] 28.6 µM | [4] 27.7 µM | [5] 16.3 µM | [6] 17.7 µM | [7] 18.5 µM | [8] 27.9 µM | [9] 19.8 µM | [10] 18.4 µM | [11] 19.6 µM | [12] 22 µM | [13] 7.89 µM | [14] 13.5 µM | [16] 15.5 µM | [15] 18.6 µM

COc1ccc(C2C3=C(COC3=O)Oc3cc4c(cc32)OCO4)cc1 (stereo not drawn)
inactive: [1] 61.4 µM | [2] 5.15 µM | [3] 8.39 µM | [4] 3.85 µM | [5] 16.7 µM | [6] 32.2 µM | [7] 27.2 µM | [9] 23.9 µM | [10] 27.4 µM | [11] 27.9 µM | [12] 12.7 µM | [13] 19.1 µM | [14] 15.5 µM | [16] 8.3 µM | [17] 15.4 µM

Cc1ccc(C(=O)Nc2ccc(CP(=O)(O)O)cc2)cc1NC(=O)c1cccc(NC(=O)Nc2cccc(C(=O)Nc3cc(C(=O)Nc4ccc(CP(=O)(O)O)cc4)ccc3C)c2)c1
inactive: [1] > 100 µM | [2] > 100 µM | [3] > 100 µM | [4] > 100 µM | [5] > 100 µM | [6] > 100 µM | [7] > 100 µM | [8] > 100 µM | [9] > 100 µM | [10] > 100 µM | [11] > 100 µM | [12] > 100 µM | [18] > 100 µM | [13] > 100 µM | [19] > 100 µM | [16] > 100 µM | [20] > 100 µM | [15] > 100 µM

Cc1c2c(nc3ccccc13)C(=O)c1cccnc1C2=O
inactive: [1] 16.3 µM | [2] 12.4 µM | [3] 20.6 µM | [4] 20 µM | [5] 15.2 µM | [6] 17.8 µM | [7] 33.3 µM | [8] 25.2 µM | [9] 10.8 µM | [10] 10.7 µM | [11] 5.79 µM | [12] 17 µM | [18] 1.77 µM | [13] 63.5 µM | [19] 8.34 µM | [16] 11.1 µM | [20] 1.79 µM | [15] 18.9 µM

CC1(C)CCCCCCCCCC2CC2CCC(C)(C)C1=O (stereo not drawn)
inactive: [1] 34.6 µM | [2] 18.3 µM | [3] 21.8 µM | [4] 15.6 µM | [5] 19.6 µM | [6] 41.3 µM | [7] 17.2 µM | [8] 22.4 µM | [9] 18.7 µM | [10] 19 µM | [11] 18.4 µM | [12] 24 µM | [18] 30.9 µM | [13] 15.4 µM | [19] 17.3 µM | [16] 28.6 µM | [20] 23 µM | [15] 14.2 µM

NC(=O)NNc1nc2ccccc2c(=O)n1NC(=O)C(=O)Nc1ccc(Cl)cc1Cl
inactive: [1] 81.1 µM | [2] > 100 µM | [3] > 100 µM | [4] > 100 µM | [5] > 100 µM | [6] 64 µM | [7] > 100 µM | [8] > 100 µM | [9] > 100 µM | [10] > 100 µM | [11] > 100 µM | [12] > 100 µM | [18] > 100 µM | [13] > 100 µM | [19] > 100 µM | [16] > 100 µM | [20] > 100 µM | [15] > 100 µM

CCOC(=O)Cn1c(=O)c2nc(SC)sc2n(-c2ccc(C)cc2)c1=S
inactive: [1] 20.4 µM | [2] > 71.6 µM | [3] 20 µM | [4] > 100 µM | [5] 48.6 µM | [6] 55.3 µM | [7] 18.1 µM | [8] 30.1 µM | [9] 24.5 µM | [10] > 100 µM | [11] > 52.2 µM | [12] > 100 µM | [18] > 100 µM | [13] 22.8 µM | [19] 52.7 µM | [16] 9.71 µM | [20] 99.5 µM | [15] 23.8 µM
